One experiment concerns the target Carbonic anhydrase 1 (Homo sapiens, UniProt P00915). Kind of experiment: Inhibition of human full length CA1 by stopped flow CO2 hydration assay.
A further experiment deals with Carbonic anhydrase 9 (Homo sapiens, UniProt Q16790). Kind of experiment: Inhibition of human recombinant CA9 catalytic domain by stopped flow CO2 hydration assay.
Another experiment addresses Carbonic anhydrase 2 (Homo sapiens, UniProt P00918). Kind of experiment: Inhibition of human full length CA2 by stopped flow CO2 hydration assay.

Carbonic anhydrase 1, sequence (P00915 whole entry, the tested form may be a part): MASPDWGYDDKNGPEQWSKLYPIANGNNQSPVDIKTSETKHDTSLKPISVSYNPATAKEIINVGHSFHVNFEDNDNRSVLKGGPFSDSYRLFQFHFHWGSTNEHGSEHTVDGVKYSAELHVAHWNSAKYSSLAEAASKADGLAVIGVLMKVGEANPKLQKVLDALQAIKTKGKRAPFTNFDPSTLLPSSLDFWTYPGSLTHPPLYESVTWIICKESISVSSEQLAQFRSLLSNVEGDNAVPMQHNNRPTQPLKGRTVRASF

A word on the Ki: it is the dissociation constant of the complex between target and ligand, obtained from inhibition or displacement. As to `CC(=O)OC[C@H]1OC(NS(=O)(=O)NO)C=C[C@@H]1OC(C)=O` (stereo partly drawn), the Ki at Carbonic anhydrase 1 came out at 813 nM; at Carbonic anhydrase 9, 90 nM.

For the compound `CC(=O)OC[C@H]1OC(NS(=O)(=O)NO)C=C[C@H]1OC(C)=O` (stereo partly drawn), the Ki on Carbonic anhydrase 1 was 752 nM; on Carbonic anhydrase 9, 79 nM.

For the compound `CC(=O)O[C@H]1C=CC(NS(=O)(=O)NO)OC1` (stereo partly drawn), the Ki on Carbonic anhydrase 1 is greater than 10000 nM; on Carbonic anhydrase 2, greater than 10000 nM; on Carbonic anhydrase 9, 54 nM.

Turning to `CC(=O)O[C@@H]1C=CC(NS(=O)(=O)NO)OC1` (stereo partly drawn), the Ki on Carbonic anhydrase 1 is greater than 10000 nM; at Carbonic anhydrase 2, greater than 10000 nM; on Carbonic anhydrase 9 it was 44 nM.

Take `CC(=O)O[C@@H]1C=CC(NS(=O)(=O)NO)O[C@H]1C` (stereo partly drawn): the Ki is greater than 10000 nM at Carbonic anhydrase 1 and 47 nM at Carbonic anhydrase 9.

`O=S(=O)(NO)NC1C=C[C@H](O)[C@@H](CO)O1` (stereo partly drawn): the Ki on Carbonic anhydrase 1 is greater than 10000 nM; at Carbonic anhydrase 9, 9 nM.

With `O=S(=O)(NO)NC1C=C[C@@H](O)[C@@H](CO)O1` (stereo partly drawn), the Ki on Carbonic anhydrase 1 is 917 nM; at Carbonic anhydrase 9, 44 nM.

`O=S(=O)(NO)NC1C=C[C@H](O)CO1` (stereo partly drawn): the Ki on Carbonic anhydrase 1 came to 927 nM; at Carbonic anhydrase 9, 8 nM.

As for `O=S(=O)(NO)NC1C=C[C@@H](O)CO1` (stereo partly drawn), the Ki on Carbonic anhydrase 1 is greater than 10000 nM; at Carbonic anhydrase 9, 9 nM.

In the case of `C[C@@H]1OC(NS(=O)(=O)NO)C=C[C@H]1O` (stereo partly drawn), the Ki on Carbonic anhydrase 1 was greater than 10000 nM; at Carbonic anhydrase 2, greater than 10000 nM; at Carbonic anhydrase 9 it was 8 nM.

The record behind these values is ChEMBL document CHEMBL3352092, “Ferrier sulfamidoglycosylation of glycals catalyzed by nitrosonium tetrafluoroborate: towards new carbonic anhydrase glycoinhibitors” (Bioorg Med Chem, 2014).
